In brackets after ≈: the same amount, converted by molar mass.
Tests used:
HCT-116 [1] = assay: Anticancer activity against human HCT-116 cells; format: functional, cell-based
[2] = target: T1, Vascular endothelial growth factor receptor 2 (Homo sapiens, UniProt P35968); assay: Inhibition of VEGFR-2 (unknown origin)
MCF7 [3] = assay: Anticancer activity against human MCF7 cells; format: functional, cell-based
HepG2 [4] = assay: Anticancer activity against human HepG2 cells; format: functional, cell-based
A549 [5] = assay: Cytotoxicity against human A549 cells assessed as reduction in cell growth incubated for 24 hrs by MTT assay; format: functional, cell-based; conditions: A549, 24 h
NCI-H460 = assay: Cytotoxicity against human NCI-H460 cells assessed as reduction in cell growth incubated for 24 hrs by MTT assay; format: functional, cell-based; conditions: NCI-H460, 24 h
[6] = target: T1, Vascular endothelial growth factor receptor 2; assay: Inhibition of GST-tagged human recombinant VEGFR2 at 10 uM using Poly(4:1 Glu, Tyr) as substrate by Kinase-Glo Max reagent based luminescence analysis relative to control
[7] = target: T1, Vascular endothelial growth factor receptor 2; assay: Inhibition of VEGFR-2 in human MCF7 cells by ELISA method; format: cell-based
[8] = target: T1, Vascular endothelial growth factor receptor 2; assay: Inhibition of human VEGFR-2 by ELISA method
MCF7 [9] = assay: Cytotoxicity against human MCF7 cells assessed as reduction in cell viability incubated for 48 hrs by MTT assay; format: functional, cell-based; conditions: MCF7, 48 h
HepG2 [10] = assay: Antiproliferative activity against human HepG2 cells assessed as cell growth inhibition measured for 24 hrs by MTT assay; format: functional, cell-based; conditions: HepG2, 24 h
MCF7 [11] = assay: Antiproliferative activity against human MCF7 cells assessed as cell growth inhibition measured for 24 hrs by MTT assay; format: functional, cell-based; conditions: MCF7, 24 h
HepG2 [12] = assay: cells; conditions: Homo sapiens, HepG2, 72 h
Description: Cytotoxicity against human HepG2 cells assessed as reduction in cell viability incubated for 72 hrs by MTT assay

HCT-116 [13] = assay: cells; conditions: Homo sapiens, HCT-116, 72 h
Description: Cytotoxicity against human HCT-116 cells assessed as reduction in cell viability incubated for 72 hrs by MTT assay

MCF7 [14] = assay: cells; conditions: Homo sapiens, MCF7, 72 h
Description: Cytotoxicity against human MCF7 cells assessed as reduction in cell viability incubated for 72 hrs by MTT assay

DU-145 = assay: Cytotoxicity against human DU-145 cells; format: functional, cell-based
A549 [15] = assay: Cytotoxicity against human A549 cells; format: functional, cell-based
MCF7 [16] = assay: Cytotoxicity against human MCF7 cells; format: functional, cell-based
[17] = target: T1, Vascular endothelial growth factor receptor 2; assay: Inhibition of VEGFR2 in human MCF7 cells by horseradish peroxidase-coupled TMB substrate based ELISA; format: cell-based
MCF7 [18] = assay: Cytotoxicity against human MCF7 cells assessed as reduction in cell viability incubated for 48 hrs by SRB assay; format: functional, cell-based; conditions: MCF7, 48 h
HCT-116 [19] = assay: Antiproliferative activity against human HCT-116 cells assessed as cell growth inhibition measured for 24 hrs by MTT assay; format: functional, cell-based; conditions: HCT-116, 24 h
[20] = Cytotoxicity against human MDA-MB-435 cells assessed as reduction in cell viability incubated for 72 hrs by CCK-8 assay; format: toxicity, cell-based
[21] = Cytotoxicity against human HUVEC cells assessed as reduction in cell viability incubated for 72 hrs by CCK-8 assay; format: toxicity, cell-based
HT-29 = assay: Cytotoxicity against human HT-29 cells assessed as reduction in cell viability incubated for 72 hrs by CCK-8 assay; format: functional, cell-based; conditions: HT-29, 72 h
[22] = Cytotoxicity against human A549 cells assessed as reduction in cell viability incubated for 72 hrs by CCK-8 assay; format: toxicity, cell-based
[23] = target: T1, Vascular endothelial growth factor receptor 2; assay: Inhibition of VEGFR-2 (unknown origin) at 1 uM by ELISA method relative to control
HeLa = assay: Cytotoxicity against human HeLa cells assessed as reduction in cell viability incubated for 72 hrs by CCK-8 assay; format: functional, cell-based
MCF7 [24] = assay: Growth inhibition of human MCF7 cells; format: functional
A549 [25] = assay: Antiproliferative activity against human A549 cells assessed as reduction in cell viability incubated for 48 hrs by MTT assay; format: functional, cell-based; conditions: A549, 48 h
HCT-116 [26] = assay: Antiproliferative activity against human HCT-116 cells assessed as reduction in cell viability incubated for 48 hrs by MTT assay; format: functional, cell-based; conditions: HCT-116, 48 h
HepG2 [27] = assay: Anticancer activity against human HepG2 cells assessed as reduction in cell viability measured after 72 hrs by MTT assay; format: functional, cell-based; conditions: HepG2, 72 h
HepG2 [28] = assay: Cytotoxicity against human HepG2 cells assessed as reduction in cell growth by MTT assay; format: functional, cell-based
MCF7 [29] = assay: Cytotoxicity against human MCF7 cells assessed as reduction in cell growth by MTT assay; format: functional, cell-based
HCT-116 [30] = assay: Cytotoxicity against human HCT-116 cells assessed as reduction in cell growth by MTT assay; format: functional, cell-based
UO-31 = assay: Antiproliferative activity against human UO-31 cells assessed as reduction in cell viability incubated for 48 hrs by MTT assay; format: functional, cell-based; conditions: UO-31, 48 h
SK-MEL-2 = assay: Inhibition of cell proliferation in human SK-MEL-2 cells at 0.3 uM relative to control; format: functional
NCI-H522 = assay: Inhibition of cell proliferation in human NCI-H522 cells at 0.3 uM relative to control; format: functional

T1 sequence (P35968 whole entry): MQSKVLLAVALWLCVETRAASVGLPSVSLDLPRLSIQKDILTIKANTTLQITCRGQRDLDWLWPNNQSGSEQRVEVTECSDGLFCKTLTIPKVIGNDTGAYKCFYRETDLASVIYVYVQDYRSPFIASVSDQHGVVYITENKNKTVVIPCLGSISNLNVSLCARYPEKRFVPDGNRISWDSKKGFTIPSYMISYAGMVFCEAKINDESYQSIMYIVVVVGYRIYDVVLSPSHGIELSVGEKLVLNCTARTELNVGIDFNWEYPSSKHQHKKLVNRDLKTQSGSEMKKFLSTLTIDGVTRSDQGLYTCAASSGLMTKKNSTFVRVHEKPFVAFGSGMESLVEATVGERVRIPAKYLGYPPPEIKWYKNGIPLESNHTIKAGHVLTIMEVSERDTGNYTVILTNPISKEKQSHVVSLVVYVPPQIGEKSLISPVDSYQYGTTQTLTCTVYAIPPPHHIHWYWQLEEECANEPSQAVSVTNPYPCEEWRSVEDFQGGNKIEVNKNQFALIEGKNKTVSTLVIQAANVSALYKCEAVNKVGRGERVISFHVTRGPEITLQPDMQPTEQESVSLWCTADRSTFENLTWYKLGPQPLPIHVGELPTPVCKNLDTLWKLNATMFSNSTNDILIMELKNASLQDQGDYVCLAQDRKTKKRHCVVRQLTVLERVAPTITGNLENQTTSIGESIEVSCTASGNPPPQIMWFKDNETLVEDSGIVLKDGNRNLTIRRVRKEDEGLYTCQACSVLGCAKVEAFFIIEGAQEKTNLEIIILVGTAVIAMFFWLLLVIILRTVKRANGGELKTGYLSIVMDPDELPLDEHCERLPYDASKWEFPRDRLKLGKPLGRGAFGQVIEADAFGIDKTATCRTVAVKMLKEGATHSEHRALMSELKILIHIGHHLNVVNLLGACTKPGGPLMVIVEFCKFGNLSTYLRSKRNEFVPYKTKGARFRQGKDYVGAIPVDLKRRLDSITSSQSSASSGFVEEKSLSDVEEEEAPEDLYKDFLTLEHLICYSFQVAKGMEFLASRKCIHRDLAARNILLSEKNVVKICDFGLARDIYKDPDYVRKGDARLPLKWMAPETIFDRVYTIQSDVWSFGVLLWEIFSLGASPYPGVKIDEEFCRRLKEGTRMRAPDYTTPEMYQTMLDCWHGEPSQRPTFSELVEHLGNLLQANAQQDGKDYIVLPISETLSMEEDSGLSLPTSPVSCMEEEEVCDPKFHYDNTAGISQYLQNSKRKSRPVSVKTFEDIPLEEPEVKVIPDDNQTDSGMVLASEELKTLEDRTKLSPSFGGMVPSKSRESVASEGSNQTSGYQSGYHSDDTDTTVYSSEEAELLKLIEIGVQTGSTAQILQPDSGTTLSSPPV

O=C(CN1C(=O)S/C(=C\c2ccc(F)cc2)C1=O)Nc1nc2ccc([N+](=O)[O-])cc2s1
IC50 (HCT-116 [1]): 5.61 µM
IC50 [2]: 0.091 µM
IC50 (MCF7 [3]): 3.84 µM
IC50 (HepG2 [4]): 7.92 µM

Clc1ccc(/C=N/N=C(/c2ccccc2)c2ccc3nc(-c4ccc(Cl)cc4)[nH]c3c2)cc1
IC50 (A549 [5]): 1.88 µM
IC50 (NCI-H460): 0.85 µM
inhibition [6]: 89.9%

O=[N+]([O-])c1ccc(CNc2cccc(-c3nc4ccccc4[nH]3)c2)cc1
IC50 [7]: 0.0067 µM
IC50 [8]: 0.0067 µM
IC50 (MCF7 [9]): 3.37 µM

Cc1ccc2oc(SCC(=O)Nc3ccc(C(=O)Nc4ccc(O)cc4)cc3)nc2c1
IC50 (HepG2 [10]): 7.01 µM
IC50 (MCF7 [11]): 18.2 µM

CCNC(=S)NS(=O)(=O)c1ccc(NC(=O)CCSc2nc3cc(C)ccc3o2)cc1
IC50 (HepG2 [12]): 9.95 µM
IC50 (HCT-116 [13]): 12.5 µM
IC50 (MCF7 [14]): 15.7 µM

COc1cc(/C=C2/C=C(c3nc4ccccc4[nH]3)NC2=O)cc(OC)c1OC
IC50 (DU-145): 7.7 µM
IC50 (A549 [15]): 8.3 µM
IC50 (MCF7 [16]): 7.2 µM

COc1cc(/C=N/NC(=O)COc2ccc(-c3nc4ccccc4s3)cc2OC)ccc1O
IC50 [17]: 0.17 µM
IC50 (MCF7 [18]): 6.58 µM

Cc1ccc2oc(SCCC(=O)Nc3ccc(S(=O)(=O)NC(=O)Nc4ccccc4)cc3)nc2c1
IC50 (HepG2 [12]): 6.58 µM
IC50 (HCT-116 [13]): 9.1 µM
IC50 (MCF7 [14]): 10.1 µM

O=C(CSc1nc2ccccc2o1)Nc1ccc(C(=O)Nc2ccc([N+](=O)[O-])cc2)cc1
IC50 (HCT-116 [19]): 2.79 µM
IC50 (HepG2 [10]): 2.43 µM
IC50 (MCF7 [11]): 3.43 µM

O=[N+]([O-])c1ccc(NC(=S)Nc2cccc(-c3nc4ccccc4[nH]3)c2)cc1
IC50 [7]: 0.0089 µM
IC50 [8]: 0.0067 µM
IC50 (MCF7 [9]): 5.84 µM

Cc1ccc2oc(SCCC(=O)Nc3ccc(S(=O)(=O)NC(=O)NC4CCCCC4)cc3)nc2c1
IC50 (HepG2 [12]): 4.13 µM
IC50 (HCT-116 [13]): 6.93 µM
IC50 (MCF7 [14]): 8.67 µM

COc1ccc(/C=N/N=C(/c2ccccc2)c2ccc3nc(-c4ccc(Cl)cc4)[nH]c3c2)cc1
IC50 (A549 [5]): 3.58 µM
IC50 (NCI-H460): 1.71 µM
inhibition [6]: 86.2%

Cn1c(COC(=O)c2c[nH]c3ccccc23)nc2ccccc21
IC50 at 72 h [20]: 0.54 µM
IC50 at 72 h [21]: 0.26 µM
IC50 (HT-29): 0.36 µM
IC50 at 72 h [22]: 0.21 µM
inhibition [23]: 33.9%
IC50 (HeLa): 0.27 µM

COc1cc(/C=C2/C=C(c3nc4ccccc4[nH]3)NC2=O)ccc1O
IC50 (DU-145): 8.7 µM
IC50 (A549 [15]): 9.6 µM
IC50 (MCF7 [16]): 7.3 µM

Cc1ccc2[nH]c(-c3ccc(C(=O)N/N=C/c4ccc(Cl)cc4Cl)cc3)nc2c1
GI (MCF7 [24]): 30.51 µM

O=C(CCc1nnc2sc(-c3ccc(Br)cc3)nn12)c1nc2cc([N+](=O)[O-])ccc2[nH]1
IC50 (A549 [25]): 6.17 µM
IC50 (HCT-116 [26]): 9.03 µM

COc1cc(-c2nc3ccccc3s2)ccc1OCC(=O)N/N=C/c1ccc([N+](=O)[O-])cc1
IC50 [17]: 0.18 µM
IC50 (MCF7 [18]): 28.4 µM

Cc1ccc2oc(SCCC(=O)Nc3nnc(-c4ccccc4)s3)nc2c1
IC50 (HepG2 [12]): 9.45 µM
IC50 (HCT-116 [13]): 5.76 µM
IC50 (MCF7 [14]): 7.36 µM

COc1cc(-c2nc3ccccc3s2)ccc1OCC(=O)N/N=C/c1ccc(O)cc1
IC50 [17]: 0.19 µM
IC50 (MCF7 [18]): 7.83 µM

O=C(CCSc1nc2ccccc2o1)Nc1nnc(-c2ccccc2)s1
IC50 (HepG2 [12]): 9.97 µM
IC50 (HCT-116 [13]): 6.99 µM
IC50 (MCF7 [14]): 7.89 µM

COc1ccc2[nH]cc(C(=O)OCc3nc4ccccc4n3C)c2c1
IC50 at 72 h [20]: 0.45 µM
IC50 at 72 h [21]: 0.32 µM
IC50 (HT-29): 0.26 µM
IC50 at 72 h [22]: 0.3 µM
inhibition [23]: 36.7%
IC50 (HeLa): 0.26 µM

COc1ccc(-c2nn(-c3ccccc3)cc2/C=C2/S/C(=N\N=C(/C)c3nc4ccccc4[nH]3)N(c3ccc(Cl)cc3)C2=O)cc1
IC50 (HepG2 [27]): 11 µg/mL (≈ 17.1 µM)
IC50 (MCF7 [9]): 5.84 µM

O=C(CCc1nnc2sc(CCc3ccccc3)nn12)c1nc2cc([N+](=O)[O-])ccc2[nH]1
IC50 (A549 [25]): 11 µM
IC50 (HCT-116 [26]): 2.19 µM

CCNC(=S)NS(=O)(=O)c1ccc(NC(=O)CCSc2nc3ccccc3o2)cc1
IC50 (HepG2 [12]): 8.1 µM
IC50 (HCT-116 [13]): 7.91 µM
IC50 (MCF7 [14]): 12.3 µM

Cc1c(C(=O)NNC(=S)Nc2ccc(Cl)cc2)nnn1Cc1nc2ccccc2[nH]1
IC50 (HepG2 [28]): 7.8 µM
IC50 (MCF7 [29]): 6.81 µM
IC50 (HCT-116 [30]): 8.34 µM

O=C(CCc1nnc2sc(COc3ccccc3)nn12)c1nc2cc([N+](=O)[O-])ccc2[nH]1
IC50 (UO-31): 32.9 µM

Cn1c(COC(=O)c2c[nH]c3ccc(Br)cc23)nc2ccccc21
IC50 at 72 h [20]: 0.27 µM
IC50 at 72 h [21]: 0.32 µM
IC50 (HT-29): 0.33 µM
IC50 at 72 h [22]: 0.45 µM
inhibition [23]: 28.8%
IC50 (HeLa): 0.33 µM

COc1cc(C2OC(CCC(=O)c3nc4cc([N+](=O)[O-])ccc4[nH]3)=NN2C(C)=O)cc(OC)c1OC (stereo unspecified)
inhibition at 0.3 µM (SK-MEL-2): 42.6%
inhibition at 0.3 µM (NCI-H522): 48.7%
IC50 (UO-31): 19.1 µM

O=C(Nc1ccc([N+](=O)[O-])cc1)Nc1cccc(-c2nc3ccccc3[nH]2)c1
IC50 [7]: 0.0068 µM
IC50 [8]: 0.0067 µM
IC50 (MCF7 [9]): 7.18 µM

COc1ccccc1NC(=O)c1ccc(NC(=O)CSc2nc3ccccc3o2)cc1
IC50 (HepG2 [10]): 3.95 µM
IC50 (MCF7 [11]): 4 µM

O=C(CCSc1nc2ccccc2o1)Nc1ccc(S(=O)(=O)NC(=O)Nc2ccccc2)cc1
IC50 (HepG2 [12]): 8.75 µM
IC50 (HCT-116 [13]): 9.52 µM
IC50 (MCF7 [14]): 9.95 µM

Clc1cccc(Cl)c1CNc1cccc(-c2nc3ccccc3[nH]2)c1
IC50 [7]: 0.0069 µM
IC50 [8]: 0.0067 µM
IC50 (MCF7 [9]): 6.3 µM

COC(=O)COc1ccc(/C=N/NC(=O)COc2ccc(-c3nc4ccccc4s3)cc2OC)cc1OC
IC50 [17]: 0.13 µM
IC50 (MCF7 [18]): 21.9 µM

COc1cc(/C=N/NC(=O)c2ccc(-c3nc4cc(C)ccc4[nH]3)cc2)cc(OC)c1OC
GI (MCF7 [24]): 84.33 µM

O=C(OCc1nc2ccccc2[nH]1)c1c[nH]c2ccccc12
IC50 at 72 h [20]: 0.37 µM
IC50 at 72 h [21]: 0.56 µM
IC50 (HT-29): 0.19 µM
IC50 at 72 h [22]: 0.54 µM
inhibition [23]: 34%
IC50 (HeLa): 0.19 µM

O=C(CSc1nc2ccccc2o1)Nc1ccc(C(=O)NC2CCCCC2)cc1
IC50 (HCT-116 [19]): 7.8 µM
IC50 (MCF7 [11]): 7.2 µM

Cc1ccc2oc(SCC(=O)Nc3ccc(C(=O)Nc4cccc(Cl)c4)cc3)nc2c1
IC50 (HepG2 [10]): 10.5 µM
IC50 (MCF7 [11]): 15.2 µM

COc1cc(/C=N/NC(=O)c2nnn(Cc3nc4ccccc4[nH]3)c2C)ccc1O
IC50 (HepG2 [28]): 10.9 µM
IC50 (MCF7 [29]): 7.11 µM
IC50 (HCT-116 [30]): 3.34 µM
IC50 [2]: 0.229 µM

Reference: ChEMBL document CHEMBL6103539, “A critical analysis of design, binding pattern and SAR of benzo-fused heteronuclear compounds as VEGFR-2 inhibitors” (Bioorg Med Chem, 2024)
